Test results from publication PMC3365038, “Optimization of a Novel Peptide Ligand Targeting Human Carbonic Anhydrase IX” (PLoS ONE, 2012).
Where two headings read alike, the source gives them in different places. Values belong to the molecule of their own block, whether it stands above or below them. Peptide text beside a SMILES is read from it.

Key:
SKRC 52 cells [1] = test: In vitro (medium) stability of 125I-labeled peptide on SKRC 52 cells; format: in vitro ADME, human
Experimental: (§1) Radio-HPLC was performed on an Agilent 1100 HPLC system equipped with a radioactivity detector (GABI Star, Raytest GmbH, Straubenhardt, Germany) using a Chromolith Performance RP-18e column (100×3 mm; Merck AG Darmstadt, Germany) eluted with a linear gradient (eluent A: 0.1% TFA in water; eluent B: 0.1% TFA in acetonitrile; 0–30% B in 10 min, flow rate: 2 mL/min).
(§2) ^125I-labeled peptide was incubated at 37°C on SKRC 52 and BxPC3 cells. At time points varying from 10 min to 2 h aliquots were taken and centrifuged for 5 min at 13,000 rpm. The supernatant was analyzed by HPLC with H2O∶CH3CN, 0–30% in 10 min.

BxPC3 cells = test: In vitro (medium) stability of 125I-labeled peptide on BxPC3 cells; format: in vitro ADME, human; details: 37°C, 10 min to 2 h, supernatant by radio-HPLC
Experimental: as §1, §2

SKRC 52 cells [2] = format: binding, human; details: for inhibition of the radioligand binding: 10^−4 mol/L competitor concentration; for inhibition of the radioligand binding / binding inhibition: 125I-CaIX-P1-4-10 on SKRC 52 cells; for binding inhibition: competitor concentration of 10^−5 mol/L
Experimental: (§3) For binding experiments 5×10^5 SKRC 52 or BxPC3 cells were seeded into 6-well plates and cultivated in 3 mL of incubation medium at 37°C for 24 h. After cell blocking with RPMI 1640 (without FCS) containing 1% BSA, the medium was replaced with 1 mL of fresh medium (without FCS) containing 0.8–1.2×10^6 cpm of ^125I-labeled peptide and incubation was performed for time periods varying from 10 min to 2 h at 37°C. To determine specific versus nonspecific binding, the cells were incubated with unlabeled competitors at concentrations varying from 10^−4 to 10^−10 mol/L. Octreotide was used as negative control competitor. After incubation the medium was removed and the cells were washed three times with 1 mL ice cold PBS in order to remove the unbound radiolabeled peptide. Subsequently, the cells were lysed with 0.5 mL NaOH 0.3 mol/L and the radioactivity was measured with a γ-counter. Bound radioactivity was calculated as percentage applied dose per 10^6 cells. CA IX negative BxPC3 cells were used as negative control.

[3] = system: CA IX positive human renal cell carcinoma SKRC 52 cells; test: In vitro binding of 125I-labeled peptides on SKRC 52 cells; details: for binding capacity on SKRC 52 cells compared to the native CaIX-P1 peptide: 125I-labeled fragments, result in words; for binding after 10 minutes compared to 30 minutes incubation: 125I-labeled peptides
Experimental: as §3

Serum stability assay = format: in vitro ADME; details: radiolabeled peptide 5 MBq in 500 µL human serum (Sigma Aldrich, H4522), 37°C, aliquots by radio-HPLC
Experimental: as §1
Metabolic stability was investigated in human serum (Sigma Aldrich, H4522). 5 MBq of radiolabeled peptide was dissolved in human serum (500 µL) and incubated at 37°C. The stability of the labeled peptide was monitored by analyzing aliquots (25 µl) via radio-HPLC at selected time points.

in vivo = test: in vivo; parameters: species or system Balb/c nu/nu mice; details: female, Balb/c nu/nu, mouse, iv, 1 MBq, total radioactivity, Tumor to organ ratio
Experimental: Organ distribution studies were performed in 9-week-old female Balb/c nu/nu mice, carrying subcutaneously transplanted SKRC 52 tumors. Animals were obtained from Charles River WIGA and housed in VentiRacks (BioZone Global). For tumor transplantation, SKRC 52 cells were grown to 90% confluence, harvested with PBS/ethylene diamine tetraacetic acid, resuspended in Falcon Matrigel-Matrix (BD) and kept on ice. 200 µl of Matrigel-Matrix cell suspension were injected subcutaneously into the anterior region of the mouse trunk and the tumors were grown to a size of 1.0 cm^3. ^131I-labeled CaIX-P1-4-10 was injected into the tail vein of the animals (approximately 1 MBq) and at 15 min, 60 min and 240 min after injection the animals were sacrificed. Tumor, blood and selected tissues (heart, spleen, liver, kidney, muscle, intestinum and brain) were removed, drained of blood, weighed and the radioactivity was measured in a γ-counter (LB 951G; Berthold Technologies). Also 3 aliquots of the tracer solution used for injection were measured. The organ uptake was calculated as percentage injected dose per gram tissue (% ID/g).

degradation in medium at 120 min (SKRC 52 cells [1]; 125I-labeled peptide on SKRC 52 cells, 37°C, 120 min incubation, supernatant by radio-HPLC): completely degraded
activity (intact radioligand) measured in medium (SKRC 52 cells [1]; 125I-labeled peptide on SKRC 52 cells, 37°C, after 60 min incubation, supernatant by radio-HPLC): 30%
degradation site in the sequence (SKRC 52 cells [1]; comparison of HPLC chromatograms of C-terminal fragments with SKRC 52 cell medium supernatants): degraded between ^6S and ^7P
radioligand degradation in medium on BxPC3 cells (BxPC3 cells): No radioligand degradation
IC50 (SKRC 52 cells [2]; 24 h): 130 nM
Serum half life (Serum stability assay): 1.5 h
Molecule: CC(C)C[C@H](NC(=O)[C@@H]1CCCN1C(=O)[C@@H](NC(=O)[C@H](Cc1c[nH]cn1)NC(=O)[C@@H](N)CC(N)=O)C(C)C)C(=O)N[C@@H](CO)C(=O)N1CCC[C@H]1C(=O)N[C@H](Cc1ccc(O)cc1)C(N)=O [CaIX-P1-4-10] (HELM PEPTIDE1{N.H.V.P.L.S.P.[dY].[am]}$$$$V2.0; N-terminus assumed)
inhibition of the radioligand binding (SKRC 52 cells [2]): over 95%
binding inhibition (SKRC 52 cells [2]): about 95%
binding capacity on SKRC 52 cells compared to the native CaIX-P1 peptide [3]: almost six-fold binding

tissue to tissue ratio at 0.25 h (in vivo; Blood): 0.63
tissue to tissue ratio at 1 h (in vivo; Blood): 0.69
tissue to tissue ratio at 4 h (in vivo; Blood): 0.67
tissue to tissue ratio at 0.25 h (in vivo; Brain): 13.9
tissue to tissue ratio at 1 h (in vivo; Brain): 14.9
tissue to tissue ratio at 4 h (in vivo; Brain): 15.1
tissue to tissue ratio at 0.25 h (in vivo; Heart): 1.63
tissue to tissue ratio at 1 h (in vivo; Heart): 2.09
tissue to tissue ratio at 4 h (in vivo; Heart): 1.84
tissue to tissue ratio at 0.25 h (in vivo; Kidney): 0.56
tissue to tissue ratio at 1 h (in vivo; Kidney): 0.73
tissue to tissue ratio at 4 h (in vivo; Kidney): 0.61
tissue to tissue ratio at 0.25 h (in vivo; Liver): 1.32
tissue to tissue ratio at 1 h (in vivo; Liver): 1.65
tissue to tissue ratio at 4 h (in vivo; Liver): 1.49
tissue to tissue ratio at 0.25 h (in vivo; Lung): 0.86
tissue to tissue ratio at 1 h (in vivo; Lung): 0.88
tissue to tissue ratio at 4 h (in vivo; Lung): 0.92
tissue to tissue ratio at 0.25 h (in vivo; Muscle): 3.36
tissue to tissue ratio at 1 h (in vivo; Muscle): 3.39
tissue to tissue ratio at 4 h (in vivo; Muscle): 2.53
tissue to tissue ratio at 0.25 h (in vivo; Spleen): 1.06
tissue to tissue ratio at 1 h (in vivo; Spleen): 1.39
tissue to tissue ratio at 4 h (in vivo; Spleen): 1.35
Molecule: CC(C)C[C@H](NC(=O)[C@@H]1CCCN1C(=O)[C@@H](NC(=O)[C@H](Cc1c[nH]cn1)NC(=O)[C@@H](N)CC(N)=O)C(C)C)C(=O)N[C@@H](CO)C(=O)N1CCC[C@H]1C(=O)N[C@H](Cc1ccc(O)c(I)c1)C(N)=O [^131I-CaIX-P1-4-10] (HELM PEPTIDE1{N.H.V.P.L.S.P.[O=C([C@@H](Cc1ccc(O)c(I)c1)N[*:1])[*:2]].[am]}$$$$V2.0; N-terminus assumed)

IC50 (SKRC 52 cells [2]; unlabeled competitor against 125I-CaIX-P1-4-10 on SKRC 52 cells, read-out: IC50): 1500 nM
Molecule: YNTNHVPLSPKY [CaIX-P1]
inhibition of the radioligand binding (SKRC 52 cells [2]): over 95%
binding inhibition (SKRC 52 cells [2]): about 80%
binding after 10 minutes compared to 30 minutes incubation [3]: higher after 10 minutes as compared to 30 minutes incubation

Second part, the molecule before the results:

Molecule: HVPLSPKy [CaIX-P1-5-12]
binding capacity on SKRC 52 cells compared to the native CaIX-P1 peptide [3]: significantly reduced binding activity

Molecule: TNHVPLSPy [CaIX-P1-3-10, fragment representing the middle part of CaIX-P1 (TNHVPLSPy)]
binding capacity on SKRC 52 cells compared to the native CaIX-P1 peptide [3]: up to five-fold higher binding capacity
binding after 10 minutes compared to 30 minutes incubation [3]: higher after 10 minutes as compared to 30 minutes incubation

Molecule: YNTNHVPL [CaIX-P1-1-8, 8-amino acid fragment of CaIX-P1 (YNTNHVPL)]
binding capacity on SKRC 52 cells compared to the native CaIX-P1 peptide [3]: significantly reduced binding activity
